Among the test systems are HCT-116 colon; MDA-MB-435; SNB-75 CNS; HCT-15 colon; MDA-MB-231 breast; NCI-H522 lung; COLO 205 colon; SK-MEL-2 melanoma; SK-OV-3 ovarian; NCI-H460 lung; OVCAR-8 ovarian; SN12C renal; SNB-19 CNS; BT-549 breast; NCI-H226 lung; U251 CNS; UO-31 renal.
Holding throughout (test): NCI-60 cell line screen, 48 h

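Dose response: 5 concentrations. Exposure: 48 h. Format: 96-well plates. Endpoint: linear interpolation; highest concentration if not reached. Definition used: TGI = concentration required for complete inhibition of growth.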 Bounds are passed on as bounds.

As for `O=C(NCCCCCN1CCC2(CCCCC2)CC1)C(C1CCCCC1)C1CCCCC1`, the TGI in the assay with HCT-116 colon stood at 8.85 µM; with MDA-MB-435 it was 3.74 µM; with SNB-75 CNS, 9.48 µM; in the assay on HCT-15 colon, 12.2 µM; with MDA-MB-231 breast, 10.8 µM; with NCI-H522 lung, 9.01 µM. For the same compound, the TGI is 2.84 µM in the assay on COLO 205 colon; 4.82 µM in the assay with SK-MEL-2 melanoma; 15.1 µM with SK-OV-3 ovarian; 6.46 µM in the assay with NCI-H460 lung; 7.23 µM in the assay with OVCAR-8 ovarian; 9.67 µM with SN12C renal. Moreover, the TGI in the assay on SNB-19 CNS was found to be 12.5 µM; in the assay on BT-549 breast, 15.4 µM; in the assay with NCI-H226 lung it was 11.8 µM; in the assay on U251 CNS, 8.53 µM; in the assay on UO-31 renal, 8.46 µM.
For `C=C1CC2[C@H](C)C(=O)CCC2(C)C2=C1C1CCC(C(C)CCC(=C)C(C)C(=O)O)C1(C)CC2=O` (stereo partly specified), the TGI in the assay on HCT-116 colon, with MDA-MB-435, with SNB-75 CNS, with HCT-15 colon, in the assay on MDA-MB-231 breast and in the assay on NCI-H522 lung was above 100 µM throughout. Also, the TGI with COLO 205 colon, with SK-MEL-2 melanoma, in the assay with SK-OV-3 ovarian, in the assay with NCI-H460 lung, with OVCAR-8 ovarian and with SN12C renal was above 100 µM throughout. Further, the TGI in the assay with SNB-19 CNS was above 100 µM; in the assay on BT-549 breast it was above 100 µM; in the assay with NCI-H226 lung, above 100 µM; with U251 CNS it was above 100 µM; in the assay with UO-31 renal it was 99.4 µM.
As to `O=C(Nc1ccc2ccccc2c1)c1cc2cc(CCl)ccc2oc1=O`, the TGI in the assay with HCT-116 colon was above 100 µM; with MDA-MB-435, above 100 µM; with SNB-75 CNS, 38.5 µM; in the assay with HCT-15 colon, above 100 µM; with MDA-MB-231 breast, above 100 µM; with NCI-H522 lung, above 100 µM. The TGI in the assay on COLO 205 colon is above 100 µM; in the assay with SK-MEL-2 melanoma, 63.3 µM; with SK-OV-3 ovarian, above 100 µM; with NCI-H460 lung, above 100 µM; in the assay on OVCAR-8 ovarian it was above 100 µM; in the assay with SN12C renal it was above 100 µM. Moreover, the TGI with SNB-19 CNS, in the assay on BT-549 breast, in the assay with NCI-H226 lung, with U251 CNS and with UO-31 renal was above 100 µM throughout.
In the case of `CC/C(=C\c1ccc(OC)cc1)c1ccc(OC)cc1`, the TGI with HCT-116 colon, in the assay with MDA-MB-435, with SNB-75 CNS, with HCT-15 colon, with MDA-MB-231 breast and in the assay with NCI-H522 lung was above 100 µM in each case. For the same compound, the TGI in the assay on COLO 205 colon, with SK-MEL-2 melanoma, with SK-OV-3 ovarian, with NCI-H460 lung, with OVCAR-8 ovarian and with SN12C renal was above 100 µM throughout. Also, the TGI with SNB-19 CNS, with BT-549 breast, in the assay with NCI-H226 lung, with U251 CNS and with UO-31 renal was above 100 µM each time.
Take `CC(C)(C)[Si](C)(C)OC[C@H](/C=C\CCCC(=O)O)NC1(c2ccccc2)c2ccccc2-c2ccccc21`: the TGI was 44.8 µM with HCT-116 colon; 39.3 µM in the assay on MDA-MB-435; above 100 µM with SNB-75 CNS; 50.9 µM in the assay on HCT-15 colon; 39.3 µM with MDA-MB-231 breast; above 100 µM in the assay on NCI-H522 lung. The TGI in the assay on COLO 205 colon came to 26.5 µM; in the assay with SK-MEL-2 melanoma, 26.7 µM; in the assay with SK-OV-3 ovarian, 72.8 µM; in the assay on NCI-H460 lung it was 59.8 µM; in the assay on OVCAR-8 ovarian it was 46.2 µM; with SN12C renal, 31.6 µM. The TGI in the assay with SNB-19 CNS is above 100 µM; in the assay with BT-549 breast, 91.6 µM; in the assay with NCI-H226 lung, 26 µM; in the assay on U251 CNS, 30.6 µM; in the assay with UO-31 renal, 34.4 µM.
With `CN(C)CCCNC(=O)c1cn2c(ccc3sc4ccccc4c(=O)c32)n1`, the TGI in the assay on HCT-116 colon is 2.98 µM; in the assay on MDA-MB-435, 30.4 µM; in the assay on SNB-75 CNS, 30.5 µM; in the assay with HCT-15 colon, 10.7 µM; in the assay on MDA-MB-231 breast it was 2.93 µM; with NCI-H522 lung, 32.4 µM. Moreover, the TGI is 7.95 µM with COLO 205 colon; 38.4 µM in the assay with SK-MEL-2 melanoma; 30.7 µM with SK-OV-3 ovarian; 2.73 µM in the assay with NCI-H460 lung; 10.1 µM in the assay on OVCAR-8 ovarian; 9.57 µM with SN12C renal. Besides, the TGI with SNB-19 CNS amounted to 31.8 µM; in the assay with BT-549 breast it was 37.8 µM; in the assay with NCI-H226 lung, 36.1 µM; in the assay on U251 CNS it was 3.22 µM; with UO-31 renal, 24.3 µM.
Take `O=C(N/N=C\c1ccc([N+](=O)[O-])s1)c1ccncc1`: the TGI in the assay with HCT-116 colon is 19.5 µM; in the assay with MDA-MB-435 it was above 55 µM; with SNB-75 CNS, above 100 µM; with HCT-15 colon, above 44 µM; in the assay on MDA-MB-231 breast it was above 89.1 µM; with NCI-H522 lung, 19.7 µM. Also, the TGI in the assay on COLO 205 colon is 9.22 µM; in the assay on SK-MEL-2 melanoma it was 68.5 µM; with SK-OV-3 ovarian, above 100 µM; with NCI-H460 lung, 33.1 µM; in the assay on OVCAR-8 ovarian it was 49.2 µM; with SN12C renal, 26.8 µM. The TGI in the assay with SNB-19 CNS is above 77.4 µM; in the assay with BT-549 breast it was 27.2 µM; in the assay on NCI-H226 lung, 17.7 µM; with U251 CNS, above 63.8 µM; in the assay with UO-31 renal it was above 38.5 µM.
Consider `C=CC[C@H](N=C(SC)SC)C(=O)N1C(=O)N(C)[C@@H](C)[C@H]1c1ccccc1`, for which the TGI in the assay on HCT-116 colon was above 100 µM; with MDA-MB-435, above 100 µM; in the assay on SNB-75 CNS it was above 100 µM; with HCT-15 colon, above 100 µM; with MDA-MB-231 breast it was above 100 µM; with NCI-H522 lung it was 54.1 µM. In addition, the TGI is above 100 µM in the assay on COLO 205 colon; 91.2 µM with SK-MEL-2 melanoma; above 100 µM in the assay with SK-OV-3 ovarian; above 100 µM with NCI-H460 lung; above 100 µM in the assay with OVCAR-8 ovarian; above 100 µM in the assay with SN12C renal. The TGI with SNB-19 CNS, with BT-549 breast, in the assay on NCI-H226 lung, in the assay on U251 CNS and in the assay with UO-31 renal was above 100 µM each time.

The values above are taken from PubChem BioAssay (NCI).
